ChEMBL document CHEMBL1201862, “PubChem BioAssay data set” (2004)
Active and inactive are the calls of the source.

Key:
[1] = target: Photoreceptor-specific nuclear receptor (Homo sapiens, UniProt Q9Y5X4); test: NR2E3 inverse agonists, dose response, biochemical, TR-FRET (AID 463256); assay type: functional
[2] = target: Peroxisome proliferator-activated receptor gamma/Nuclear receptor corepressor 2 (Homo sapiens, UniProt P37231+Q9Y618); test: Counterscreen for NR2E3 inverse agonists: TR-FRET-based biochemical high throughput dose response assay to identify inverse agonists of the interaction between peroxisome proliferator-activated receptor gamma (PPARg) and nuclear receptor co-repressor 2 (NCOR2).; assay type: functional
Sequence of Peroxisome proliferator-activated receptor gamma/Nuclear receptor corepressor 2 (P37231 whole entry): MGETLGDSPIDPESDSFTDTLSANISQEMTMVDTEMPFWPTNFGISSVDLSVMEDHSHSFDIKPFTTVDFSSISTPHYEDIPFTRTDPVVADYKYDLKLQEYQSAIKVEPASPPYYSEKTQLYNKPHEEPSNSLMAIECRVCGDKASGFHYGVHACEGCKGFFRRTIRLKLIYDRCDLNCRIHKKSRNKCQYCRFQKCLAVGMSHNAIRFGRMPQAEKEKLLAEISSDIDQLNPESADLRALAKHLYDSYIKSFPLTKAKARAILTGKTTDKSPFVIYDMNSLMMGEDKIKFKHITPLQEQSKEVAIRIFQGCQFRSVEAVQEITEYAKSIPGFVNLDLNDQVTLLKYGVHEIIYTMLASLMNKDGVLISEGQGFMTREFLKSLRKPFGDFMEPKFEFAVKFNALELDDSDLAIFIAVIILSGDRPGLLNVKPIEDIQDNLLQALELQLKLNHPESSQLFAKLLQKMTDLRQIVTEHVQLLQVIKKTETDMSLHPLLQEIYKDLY
Sequence of Peroxisome proliferator-activated receptor gamma/Nuclear receptor corepressor 2 (Q9Y618 whole entry): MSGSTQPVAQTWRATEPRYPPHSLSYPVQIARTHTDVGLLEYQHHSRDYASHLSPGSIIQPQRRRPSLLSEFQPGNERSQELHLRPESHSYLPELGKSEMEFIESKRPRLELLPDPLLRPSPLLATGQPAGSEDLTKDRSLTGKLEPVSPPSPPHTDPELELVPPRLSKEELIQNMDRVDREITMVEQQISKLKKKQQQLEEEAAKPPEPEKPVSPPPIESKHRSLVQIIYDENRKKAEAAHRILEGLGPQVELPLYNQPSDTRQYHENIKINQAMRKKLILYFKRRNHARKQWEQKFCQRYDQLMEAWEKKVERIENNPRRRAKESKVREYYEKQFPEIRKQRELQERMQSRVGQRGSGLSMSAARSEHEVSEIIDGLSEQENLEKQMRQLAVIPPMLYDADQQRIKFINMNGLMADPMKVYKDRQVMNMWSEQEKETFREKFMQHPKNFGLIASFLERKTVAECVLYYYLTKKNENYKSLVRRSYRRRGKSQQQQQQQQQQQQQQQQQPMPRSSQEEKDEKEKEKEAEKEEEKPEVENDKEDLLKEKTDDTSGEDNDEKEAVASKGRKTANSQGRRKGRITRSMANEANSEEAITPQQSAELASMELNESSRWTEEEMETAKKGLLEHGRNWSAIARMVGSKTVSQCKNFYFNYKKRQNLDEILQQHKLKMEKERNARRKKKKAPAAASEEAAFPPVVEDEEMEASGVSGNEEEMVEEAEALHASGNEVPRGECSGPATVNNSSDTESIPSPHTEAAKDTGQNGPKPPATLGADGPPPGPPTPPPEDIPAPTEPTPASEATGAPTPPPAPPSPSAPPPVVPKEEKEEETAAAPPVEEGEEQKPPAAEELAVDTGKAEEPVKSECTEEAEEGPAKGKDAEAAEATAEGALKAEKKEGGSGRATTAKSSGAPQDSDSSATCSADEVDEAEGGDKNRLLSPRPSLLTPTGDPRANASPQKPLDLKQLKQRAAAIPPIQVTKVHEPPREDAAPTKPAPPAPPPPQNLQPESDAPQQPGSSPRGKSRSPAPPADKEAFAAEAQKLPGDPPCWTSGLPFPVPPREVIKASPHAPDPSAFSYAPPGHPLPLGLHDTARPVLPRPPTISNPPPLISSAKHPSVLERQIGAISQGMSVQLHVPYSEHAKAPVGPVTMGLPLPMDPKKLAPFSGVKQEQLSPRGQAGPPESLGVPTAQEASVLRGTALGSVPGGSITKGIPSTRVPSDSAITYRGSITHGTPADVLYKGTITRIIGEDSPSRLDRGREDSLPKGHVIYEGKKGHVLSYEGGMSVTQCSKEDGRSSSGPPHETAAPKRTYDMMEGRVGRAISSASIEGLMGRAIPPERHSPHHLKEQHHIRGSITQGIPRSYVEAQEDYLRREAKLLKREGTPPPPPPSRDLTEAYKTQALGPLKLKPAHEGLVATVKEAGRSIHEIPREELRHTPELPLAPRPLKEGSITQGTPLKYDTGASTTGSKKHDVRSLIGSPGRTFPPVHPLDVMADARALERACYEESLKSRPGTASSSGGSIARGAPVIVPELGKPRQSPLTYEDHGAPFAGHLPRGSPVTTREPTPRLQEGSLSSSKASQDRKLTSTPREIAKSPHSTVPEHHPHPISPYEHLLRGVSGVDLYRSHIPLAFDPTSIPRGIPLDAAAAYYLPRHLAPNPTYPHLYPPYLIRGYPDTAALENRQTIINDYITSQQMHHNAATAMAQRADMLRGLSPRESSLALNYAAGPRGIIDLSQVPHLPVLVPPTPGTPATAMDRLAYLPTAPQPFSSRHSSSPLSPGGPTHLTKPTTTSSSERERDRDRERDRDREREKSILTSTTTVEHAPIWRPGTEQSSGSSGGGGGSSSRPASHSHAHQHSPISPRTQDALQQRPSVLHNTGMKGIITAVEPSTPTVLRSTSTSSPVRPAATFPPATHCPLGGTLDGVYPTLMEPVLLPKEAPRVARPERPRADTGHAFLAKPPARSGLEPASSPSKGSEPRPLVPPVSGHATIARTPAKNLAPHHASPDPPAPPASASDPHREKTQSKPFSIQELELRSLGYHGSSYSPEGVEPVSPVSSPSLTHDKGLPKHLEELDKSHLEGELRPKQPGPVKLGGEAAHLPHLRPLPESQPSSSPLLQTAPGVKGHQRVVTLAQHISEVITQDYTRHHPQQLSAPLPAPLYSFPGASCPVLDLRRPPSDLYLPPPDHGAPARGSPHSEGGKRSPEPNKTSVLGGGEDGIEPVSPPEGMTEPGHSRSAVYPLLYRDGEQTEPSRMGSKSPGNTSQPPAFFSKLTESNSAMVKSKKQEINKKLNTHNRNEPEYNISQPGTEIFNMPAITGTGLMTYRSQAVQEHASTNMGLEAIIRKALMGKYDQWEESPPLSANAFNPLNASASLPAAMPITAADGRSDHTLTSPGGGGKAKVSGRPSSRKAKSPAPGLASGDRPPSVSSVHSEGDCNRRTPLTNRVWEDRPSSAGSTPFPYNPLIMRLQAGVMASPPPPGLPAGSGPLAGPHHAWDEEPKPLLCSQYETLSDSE

[3] = target: Solute carrier family 12 member 2/member 5 (Homo sapiens, UniProt P55011+Q9H2X9); test: KCC2 and NKCC1 inhibition by rubidium flux, cell-based, NKCC1 counter-screen (AID 1734); assay type: functional, HEK293
[4] = HepG2 cell cytotoxicity, dose response, cytotoxicity control, cherry-picked samples (AID 1159577); assay type: functional, cell-based
[5] = P. falciparum Dd2 growth inhibitors, dose response, SYBR Green, cherry-picked samples (AID 1159567); assay type: functional, cell-based
[6] = target: 14-3-3 protein gamma (Homo sapiens, UniProt P61981); test: modulators of 14-3-3 gamma client binding – dose response (AID 711); assay type: functional
[7] = target: T1, E3 ubiquitin-protein ligase XIAP (Homo sapiens, UniProt P98170); test: XIAP antagonists, biochemical, IAP family, fluorescence polarization (AID 1018); assay type: functional
T1 sequence (P98170 whole entry): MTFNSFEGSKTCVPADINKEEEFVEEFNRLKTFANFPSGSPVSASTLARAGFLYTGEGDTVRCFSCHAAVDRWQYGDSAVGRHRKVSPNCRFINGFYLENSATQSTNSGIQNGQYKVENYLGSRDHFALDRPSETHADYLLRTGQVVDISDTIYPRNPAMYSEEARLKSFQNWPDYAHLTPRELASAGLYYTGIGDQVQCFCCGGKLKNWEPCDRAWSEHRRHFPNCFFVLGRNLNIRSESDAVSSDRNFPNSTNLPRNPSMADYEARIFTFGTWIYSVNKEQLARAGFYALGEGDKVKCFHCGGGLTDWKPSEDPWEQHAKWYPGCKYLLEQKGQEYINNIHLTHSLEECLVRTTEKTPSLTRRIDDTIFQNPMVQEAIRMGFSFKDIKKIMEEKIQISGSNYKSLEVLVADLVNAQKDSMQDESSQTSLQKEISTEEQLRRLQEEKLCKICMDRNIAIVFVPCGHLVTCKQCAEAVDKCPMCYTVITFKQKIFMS

[8] = target: T1, E3 ubiquitin-protein ligase XIAP; test: Counter Screen using XIAP-Bir3 for Chemical Antagonists of Bir1/2 domains of IAP-family anti-apoptotic proteins. [Related pubchem assays (depositor defined):AID1018, AID1449, AID1514, AID1638, AID1749, AID1750, AID488957, AID488963]
[9] = P. falciparum ATP4 D1247Y mutant growth inhibitors, dose response, NITD609-resistant line, SYBR Green, dry powder (AID 1159571); assay type: functional, cell-based;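 also: parasites synchronized at ring stage by sorbitol before testing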
[10] = HepG2 cell cytotoxicity, dose response, cytotoxicity control, plate reader, dry powder samples (AID 1159569); assay type: functional, cell-based;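 also: inhibitor potency with signal falling toward the positive control level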
[11] = P. falciparum Dd2 growth inhibitors, dose response, SYBR Green, dry powder samples (AID 1159566); assay type: functional, cell-based;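 also: potency for growth inhibition with lower SYBR green DNA signal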
[12] = P. falciparum 3D7-ScDHODH growth inhibitors, dose response, SYBR Green, dry powder samples (AID 1159570); assay type: functional, cell-based;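 also: parasite growth measured after 72 hours of compound exposure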
[13] = target: NADPH oxidase 1 (Homo sapiens, UniProt Q9Y5S8); test: Late-stage luminescence-based cell-based dose response assay to identify inhibitors of NADPH oxidase 1 (NOX1): Purchased analogs 2.; assay type: functional
[14] = M. tuberculosis H37Rv growth inhibitors, H37Rv strain (AID 1626); assay type: functional
[15] = Luminescent dose response cell-based high throughput screening assay for inhibitors of the Janus kinase 2 mutant JAK2V617F. [Related pubchem assays: 1446 (Primary screen.), 1521 (Confirmation assay.), 1486 (Counter screen.)]; assay type: functional
[16] = Luminescence Cell-Based Dose Confirmation to Identify Activators of 5'UTR Stem-Loop Driven Alpha-Synuclein mRNA Translation in H4 Neuroglioblastoma Cells. [Related pubchem assays: 1829 (Project Summary), 1814 (Primary HTS)]; assay type: functional
[17] = Luminescence Cell-Based Dose Response to Identify Activators of Luciferase Translation or Activity in H4-C Neuroglioblastoma Cells. [Related pubchem assays: 1829 (Project Summary), 1814 (Primary HTS)]; assay type: functional
[18] = Luminescence Cell-Based Dose Response HTS to Identify Activators of Luciferase Translation or Activity in H4 […] Cells. [Related pubchem assays: 1829 (Project Summary), 1814 (Primary HTS)]; assay type: functional
[19] = target: Disintegrin and metalloproteinase domain-containing protein 17 (Homo sapiens, UniProt P78536); test: ADAM17 protease inhibitors, dose response, counter-screen for ADAM10 exosite inhibitor project, biochemical, quenched FRET substrate (AID 743253)
[20] = M. tuberculosis growth inhibition, HTS (AID 449762); assay type: functional
[21] = Luminescence Cell-Based Dose Response to Identify Activators of 5'UTR Stem-Loop Driven Prion Protein mRNA Translation in H4-C Neuroglioblastoma Cells. [Related pubchem assays: 1829 (Project Summary), 1814 (Primary HTS)]; assay type: functional
[22] = P. falciparum Dd2 growth inhibitors, dose response, SYBR Green, dry powder samples, set 9 (AID 1159568); assay type: functional, cell-based
[23] = target: T2, Estrogen receptor (Homo sapiens, UniProt P03372); test: potentiators of ERα–SRC-1 coactivator binding, dose response, biochemical, TR-FRET, ERα LBD (AID 737)
T2 sequence (P03372 whole entry): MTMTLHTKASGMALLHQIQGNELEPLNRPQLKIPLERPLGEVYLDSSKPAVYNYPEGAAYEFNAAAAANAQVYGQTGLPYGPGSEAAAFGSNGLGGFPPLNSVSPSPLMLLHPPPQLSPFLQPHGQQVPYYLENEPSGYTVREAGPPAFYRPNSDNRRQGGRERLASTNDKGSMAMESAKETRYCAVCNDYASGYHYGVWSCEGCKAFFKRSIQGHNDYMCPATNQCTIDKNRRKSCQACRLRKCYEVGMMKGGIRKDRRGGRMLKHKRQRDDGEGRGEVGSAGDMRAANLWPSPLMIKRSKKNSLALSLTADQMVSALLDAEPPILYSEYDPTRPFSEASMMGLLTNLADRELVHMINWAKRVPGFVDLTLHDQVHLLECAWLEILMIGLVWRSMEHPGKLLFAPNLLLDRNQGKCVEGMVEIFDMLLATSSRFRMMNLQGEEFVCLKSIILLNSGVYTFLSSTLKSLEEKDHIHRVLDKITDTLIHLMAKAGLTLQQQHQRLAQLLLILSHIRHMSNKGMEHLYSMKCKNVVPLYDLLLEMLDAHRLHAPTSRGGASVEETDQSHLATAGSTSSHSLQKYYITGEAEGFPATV

[24] = target: Protein Tat (Human immunodeficiency virus type 1 group M subtype B (isolate HXB2)(HIV-1), UniProt P04608); assay type: functional;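 also: tat binding to TAR RNA read out by fluorescence polarization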
[25] = target: Nonstructural protein 1 (Influenza A virus, UniProt Q194T2); assay type: functional, Influenza A virus (A/California/07/2009(H1N1))
Sequence of Nonstructural protein 1 (Q194T2 whole entry): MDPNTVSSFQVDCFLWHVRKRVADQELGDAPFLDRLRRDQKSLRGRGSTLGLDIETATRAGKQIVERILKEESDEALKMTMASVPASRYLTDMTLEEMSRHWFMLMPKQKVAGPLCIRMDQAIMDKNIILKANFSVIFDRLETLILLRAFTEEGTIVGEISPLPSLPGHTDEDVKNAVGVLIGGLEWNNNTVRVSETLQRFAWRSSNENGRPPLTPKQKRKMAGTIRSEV

[26] = target: Cytochrome P450 2D6 (Homo sapiens, UniProt P10635);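 also: CYP2D6 member of a cytochrome P450 panel assay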
Sequence of Cytochrome P450 2D6 (P10635 whole entry): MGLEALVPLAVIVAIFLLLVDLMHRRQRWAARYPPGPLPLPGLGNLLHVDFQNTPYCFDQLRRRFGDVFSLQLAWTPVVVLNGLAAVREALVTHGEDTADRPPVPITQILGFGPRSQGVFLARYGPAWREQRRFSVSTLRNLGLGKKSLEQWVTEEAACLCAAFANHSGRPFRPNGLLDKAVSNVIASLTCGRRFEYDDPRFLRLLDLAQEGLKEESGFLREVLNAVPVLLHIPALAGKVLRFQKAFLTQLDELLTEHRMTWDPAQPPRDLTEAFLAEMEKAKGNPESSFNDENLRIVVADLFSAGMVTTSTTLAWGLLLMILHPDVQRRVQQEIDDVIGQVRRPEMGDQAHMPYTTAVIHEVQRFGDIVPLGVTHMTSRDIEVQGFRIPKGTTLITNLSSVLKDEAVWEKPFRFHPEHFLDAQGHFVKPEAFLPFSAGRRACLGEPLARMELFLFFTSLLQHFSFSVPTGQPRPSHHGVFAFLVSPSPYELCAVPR

[27] = target: T3, Mannose-6-phosphate isomerase (Homo sapiens, UniProt P34949); test: inhibitors of human PMI, primary screen, biochemical, fluorescence intensity, coupled assay (AID 1209)
T3 sequence (P34949 whole entry): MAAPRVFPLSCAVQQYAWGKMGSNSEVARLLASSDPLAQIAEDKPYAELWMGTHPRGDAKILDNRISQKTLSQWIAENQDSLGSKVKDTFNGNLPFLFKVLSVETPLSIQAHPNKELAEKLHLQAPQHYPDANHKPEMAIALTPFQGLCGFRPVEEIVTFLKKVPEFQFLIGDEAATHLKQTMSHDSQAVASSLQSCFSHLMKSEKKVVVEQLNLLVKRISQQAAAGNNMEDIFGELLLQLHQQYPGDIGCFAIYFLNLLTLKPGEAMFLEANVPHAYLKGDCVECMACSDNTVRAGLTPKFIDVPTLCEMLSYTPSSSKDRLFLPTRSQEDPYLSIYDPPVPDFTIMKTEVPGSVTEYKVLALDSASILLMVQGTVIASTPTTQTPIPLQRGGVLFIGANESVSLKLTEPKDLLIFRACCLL

[28] = target: T4, Rac GTPase-activating protein 1 (Homo sapiens, UniProt Q9H0H5); test: MgcRacGAP GTPase-activating activity inhibitors, confirmation, biochemical, ADP Hunter fluorescence, primary and confirmatory (AID 624330); assay type: functional
T4 sequence (Q9H0H5 whole entry): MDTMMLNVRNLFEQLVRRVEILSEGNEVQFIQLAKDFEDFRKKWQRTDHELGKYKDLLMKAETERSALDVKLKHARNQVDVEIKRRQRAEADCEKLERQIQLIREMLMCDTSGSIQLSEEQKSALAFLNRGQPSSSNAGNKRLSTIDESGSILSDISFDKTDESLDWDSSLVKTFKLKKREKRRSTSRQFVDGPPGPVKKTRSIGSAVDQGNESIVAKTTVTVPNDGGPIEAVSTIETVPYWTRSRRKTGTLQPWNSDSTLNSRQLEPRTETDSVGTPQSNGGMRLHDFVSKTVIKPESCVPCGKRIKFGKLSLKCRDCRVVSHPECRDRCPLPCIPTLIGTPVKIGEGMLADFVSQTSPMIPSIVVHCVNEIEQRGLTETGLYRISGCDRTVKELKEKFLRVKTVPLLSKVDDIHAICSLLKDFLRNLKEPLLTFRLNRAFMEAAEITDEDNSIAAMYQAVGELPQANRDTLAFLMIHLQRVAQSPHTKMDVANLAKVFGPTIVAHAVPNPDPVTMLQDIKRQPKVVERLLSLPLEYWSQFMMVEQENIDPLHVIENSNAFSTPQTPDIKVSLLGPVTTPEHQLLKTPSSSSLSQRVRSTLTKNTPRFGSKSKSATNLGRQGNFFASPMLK

[29] = HeLa cell cytotoxicity, dose response, cytotoxicity control for MgcRacGAP inhibitor project (AID 624300); assay type: functional
[30] = target: Lytic switch protein BZLF1 (Epstein-Barr virus (strain B95-8) (HHV-4) (Human herpesvirus 4), UniProt P03206); test: EBV ZTA inhibitors, dose response, counter-screen for EBNA-1 inhibitor project, biochemical, fluorescence polarization, Epstein-Barr virus, 1536-well (AID 2377); set-up: species or system human gammaherpesvirus 4;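 also: fluorescence polarization of Cy5-labelled ZRE DNA probe bound by purified Zta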
Sequence of Lytic switch protein BZLF1 (P03206 whole entry): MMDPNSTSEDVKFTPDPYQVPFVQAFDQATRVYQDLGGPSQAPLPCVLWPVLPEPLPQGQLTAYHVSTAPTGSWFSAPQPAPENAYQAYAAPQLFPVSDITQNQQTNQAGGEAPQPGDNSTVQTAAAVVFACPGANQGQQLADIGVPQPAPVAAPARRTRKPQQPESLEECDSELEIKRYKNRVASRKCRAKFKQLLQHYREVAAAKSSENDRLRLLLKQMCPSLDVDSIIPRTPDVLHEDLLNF

[31] = target: Epstein-Barr nuclear antigen 1 (Epstein-Barr virus (strain B95-8) (HHV-4) (Human herpesvirus 4), UniProt P03211); test: EBNA-1 inhibitors, dose response, biochemical, fluorescence polarization, 1536-well (AID 2381); set-up: species or system human gammaherpesvirus 4;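 also: fluorescence polarization of a Cy5 DNA probe bound by EBNA-1 protein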
[32] = target: Heat shock protein HSP 90-alpha (Homo sapiens, UniProt P07900); test: Luminescence-based dose response biochemical high throughput screening assay for inhibitors of the Heat Shock Protein 90 (HSP90). [Related pubchem assays: 1831 (Summary AID.), 1846 (Confirmation screen.), 1789 (Primary screen.)]
[33] = target: T5, Estrogen receptor beta (Homo sapiens, UniProt Q92731); test: ERβ–SRC-3 coactivator interaction inhibitors, confirmation, orthogonal assay, biochemical, ELISA, streptavidin-HRP readout (AID 1060)
T5 sequence (Q92731 whole entry): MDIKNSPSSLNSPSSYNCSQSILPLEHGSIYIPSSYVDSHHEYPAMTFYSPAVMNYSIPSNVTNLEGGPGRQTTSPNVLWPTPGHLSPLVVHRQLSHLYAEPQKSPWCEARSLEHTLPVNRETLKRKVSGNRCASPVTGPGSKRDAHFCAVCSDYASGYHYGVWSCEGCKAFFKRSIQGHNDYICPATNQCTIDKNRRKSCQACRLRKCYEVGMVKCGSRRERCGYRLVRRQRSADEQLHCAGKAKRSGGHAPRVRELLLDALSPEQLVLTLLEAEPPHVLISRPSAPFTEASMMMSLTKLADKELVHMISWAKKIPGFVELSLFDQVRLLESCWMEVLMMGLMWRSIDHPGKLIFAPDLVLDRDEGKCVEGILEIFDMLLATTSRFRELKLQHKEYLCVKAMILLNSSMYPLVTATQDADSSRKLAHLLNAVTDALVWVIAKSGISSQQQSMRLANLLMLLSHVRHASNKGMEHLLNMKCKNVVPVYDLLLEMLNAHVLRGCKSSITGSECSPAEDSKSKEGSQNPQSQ

[34] = target: T5, Estrogen receptor beta
[35] = target: 5-hydroxytryptamine receptor 1E (Homo sapiens, UniProt P28566); test: Counterscreen assay for S1P3 antagonists: Dose response cell-based high throughput screening assay to identify antagonists of the 5-Hydroxytryptamine Receptor Subtype 1E (5HT1E). [Related pubchem assays: 1429, 485 ]; assay type: functional
[36] = target: Sphingosine 1-phosphate receptor 3 (Homo sapiens, UniProt Q99500); test: Dose response cell-based high throughput screening assay for antagonists of the Sphingosine 1-Phosphate Receptor 3 (S1P3). [Related pubchem assays: 1429, 485 ]; assay type: functional
[37] = Vero cell cytotoxicity, dose response, cytotoxicity control for Vif-APOBEC3G degradation inhibitor project, Vero cells (AID 1117358); assay type: functional; details: Human immunodeficiency virus 1, Vero

CC1(C)Cc2ccccc2-c2nnc(SCC(=O)N3CCc4ccccc43)n21
IC50 [1]: 4.42 µM (active) | IC50 [2]: 7.95 µM (active)

O=C(Cn1cnc2c(nnn2Cc2ccccc2)c1=O)N1CCCc2ccccc21
IC50 [3]: 6 µM (active)

CCS(=O)(=O)N1CC2(C1)[C@@H](c1ccccc1)[C@H](CO)N2Cc1ccc(F)cc1
AC50 [4]: > 39 µM (inactive) | AC50 [5]: 6 µM (active)

COc1ccc(C(=O)Oc2ccc(C(C)=O)cc2)c(OC)c1
IC50 [6]: > 50 µM (not active)

O=C(Nc1ccccc1)c1cc(S(=O)(=O)N2CCSCC2)ccc1Cl
IC50 [7]: > 100 µM (not active) | IC50 [8]: > 100 µM (inactive)

CCCN(C)C[C@@H]1Oc2cc(C#Cc3cccnc3)ccc2S(=O)(=O)N([C@@H](C)CO)C[C@H]1C
AC50 [9]: 2.99 µM (active) | AC50 [10]: 79.5 µM (active) | AC50 [5]: 2.13 µM (active) | AC50 [11]: 2.62 µM (active) | AC50 [12]: 3.59 µM (active)

COc1ccc(/C=N/Nc2c(F)c(F)c(F)c(F)c2F)cc1
IC50 [13]: > 17 µM (not active)

CCOC(=O)c1ccc(NC(=O)Cn2cccc2)cc1
IC50 [14]: > 100 µM (active)

COc1ccc(-c2cnc3c(c2)CCC3(C#N)C#N)cc1
IC50 [15]: 768 nM (active)

C(=C\c1ccccc1)/C=N/Nc1nc2ccccc2s1
EC50 [16]: 366 nM (active) | EC50 [17]: 289 nM (active) | EC50 [18]: < 100 nM (inconclusive) | IC50 [19]: > 69.5 µM (inactive) | IC50 [20]: > 100 µM (active) | EC50 [21]: 349 nM (active)

C[C@@H]1CCCCO[C@H](CN(C)S(=O)(=O)c2ccccc2)[C@@H](C)CN([C@@H](C)CO)C(=O)c2cc(NC(=O)Nc3ccc4c(c3)OCO4)ccc2O1
AC50 [22]: 1.64 µM (active)

CCOC(=O)c1cc2c(c(CSc3nc4ccccc4c(=O)n3Cc3ccco3)c1)OCOC2
EC50 [23]: 3.27 µM (active)

COC(=O)C(C)Sc1nnc(Cc2cc(O)nc(O)n2)n1-c1cc(C)ccc1C (stereo not drawn)
IC50 [24]: > 100 µM (active)

CC(C)/N=c1\scc(-c2ccco2)n1/N=C/c1ccc(O)c(O)c1
IC50 [25]: 39.3 µM (active) | AC50 [26]: 14.1 µM (inconclusive) | IC50 [27]: > 50 µM (not active) | IC50 [28]: 56.3 µM (active) | CC50 [29]: 99.4 µM (active)

Cc1ccc(/C=C2\SC(=S)N(CCC(=O)NNC(=O)c3ccc(O)cc3)C2=O)cc1
IC50 [30]: > 111 µM (not active) | IC50 [31]: 11.6 µM (not active)

Cc1nc2cc(C(=O)O)ccc2[nH]1
IC50 [32]: 7.21 µM (active) | IC50 [33]: 99.5 µM (not active) | IC50 [34]: 24.7 µM (active)

Cc1ccccc1C(=O)N1CCN(c2ccc(NC(=O)c3ccc4c(c3)OCO4)cc2)CC1
IC50 [35]: 13.7 µM (not active) | IC50 [36]: > 50 µM (not active)

CCCCCO/C(O)=C1\C(C)=Nc2nnnn2C1c1ccccc1Cl (stereo not drawn)
CC50 [37]: > 40 µM (active)
